Like-named read-outs stand apart in the source and are kept apart here.
Molecular target: recombinant eIF4E (Homo sapiens (Human), UniProt P06730)
Assay: Fluorescence polarization competition assay for eIF4E binding potency
Experimental: Compounds were screened for eIF4E binding potency using a fluorescence polarization competition assay. All binding reactions were performed in fluorescence polarization buffer (FPB) containing 20 mM Tris pH 7.5, 100 mM NaCl, 1 mM DTT, and 0.02% Tween-20. Final binding reactions contained 75 nM recombinant eIF4E (Beryllium, custom order), 20 nM EDA-m^7GDP-ATTO-550 (Jena Bioscience, NU-827-550) and varying concentrations of the inhibitory compound of interest. Final DMSO concentration in each reaction was 1%.
eIF4E protein was pre-incubated with EDA-m^7GDP-ATTO-550 in FPB at 2× concentrations for 5 minutes prior to the addition of compounds. Compounds (100×) were prepared using 3-fold serial dilutions in 100% DMSO, and subsequently diluted 1:50 in FPB to produce 2× stocks. 50 μl of 2× eIF4E/EDA-m^7GDP-ATTO-550 were transferred to the wells of a 96-well half-area black flat bottom polystyrene plate. 50 μl of 2× test compound were added, and binding reactions were allowed to equilibrate for 30 minutes at room temperature while protected from light. The fluorescent polarization signal was detected using a Victor 2 multi-label counter (Perkin Elmer) and the concentration necessary to achieve inhibition of eIF4E/EDA-m^7GDP-ATTO-550 binding by 50% (IC50) was calculated using data from an 8-point compound dilution series.
In Table 4A, IC50 values of less than 0.05 μM are labelled as “+++”, from 1 to 0.05 μM are labelled as “++”, and greater than 1 μM are labelled as “+”. ND=not determined.

[1] = fluorescence polarization competition, 75 nM recombinant eIF4E, 20 nM EDA-m7GDP-ATTO-550, IC50 class, read-out: elF4E FP
[2] = inhibition of eIF4E/EDA-m7GDP-ATTO-550 binding by 50%, Table 4B calculated values, read-out: IC50

Sequence of recombinant eIF4E (P06730 whole entry): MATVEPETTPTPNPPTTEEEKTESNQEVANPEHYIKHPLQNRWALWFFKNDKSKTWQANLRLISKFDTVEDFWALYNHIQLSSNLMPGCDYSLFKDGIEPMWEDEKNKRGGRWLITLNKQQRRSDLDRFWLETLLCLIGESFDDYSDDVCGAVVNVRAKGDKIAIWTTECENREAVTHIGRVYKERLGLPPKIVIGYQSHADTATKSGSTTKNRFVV

Row | SMILES | IC50 [1] [nM] | IC50 [2] [nM]
1 | C#Cc1cc(C#N)c2c(=O)n(CCOc3ccc(Cl)cc3-c3ccnc4c(C(=O)O)csc34)c(C)nc2c1 [compound 213] | < 50 | 35.6
2 | Cc1nc2cc(C(F)(F)F)cc(C#N)c2c(=O)n1CCOc1ccc(Cl)cc1-c1ncnc2c(C(=O)O)csc12 [compound 215] | 50 to 1000 | –
3 | Cc1nc2cc(C(F)(F)c3ccncc3)cc(C#N)c2c(=O)n1CCOc1ccc(Cl)cc1-c1ccnc2c(C(=O)O)csc12 [compound 216] | 50 to 1000 | 62.8
4 | Cc1nc2cc(C(C)(F)F)cc(C#N)c2c(=O)n1CCOc1ccc(Cl)cc1-c1ccnc2c(C(=O)O)csc12 [compound 217] | 50 to 1000 | 55.4
5 | Cc1c(Cl)c2cc(C(F)(F)F)cc(C#N)c2c(=O)n1CCOc1ccc(Cl)cc1-c1ccnc2c(C(=O)O)csc12 [compound 218] | < 50 | 16.9
6 | Cc1nc2cc(C(F)(F)F)cc(C(F)(F)F)c2c(=O)n1CCOc1ccc(Cl)cc1-c1ccnc2c(C(=O)O)csc12 [compound 219] | 50 to 1000 | 109
7 | Cc1nc2cc(C(F)(F)F)cc(C(F)F)c2c(=O)n1CCOc1ccc(Cl)cc1-c1ccnc2c(C(=O)O)csc12 [compound 220] | 50 to 1000 | 213
8 | Cc1nc2cc(C(F)(F)F)cc(S)c2c(=O)n1CCOc1ccc(Cl)cc1-c1ccnc2c(C(=O)O)csc12 [compound 221] | 50 to 1000 | 113
9 | Cc1nc2cc(C(F)(F)F)cc(S(C)(=O)=O)c2c(=O)n1CCOc1ccc(Cl)cc1-c1ccnc2c(C(=O)O)csc12 [compound 223] | 50 to 1000 | 950
10 | Cc1nc2cc(C(F)(F)F)cc(C#N)c2c(=O)n1CCOc1ccc(Cl)cc1-c1nccc2c(C(=O)O)csc12 [compound 225] | 50 to 1000 | 147
11 | Cc1nc2cc(C(F)(F)F)cc(C#N)c2c(=O)n1CCOc1ccc(Cl)cc1-c1ccc(C(=O)O)c2ncsc12 [compound 226] | 50 to 1000 | 70.7
12 | Cc1nc2cc(C(F)(F)F)cc(C#N)c2c(=O)n1CCOc1ccccc1-c1ccnc2c(C(=O)O)csc12 [compound 227] | 50 to 1000 | 507
13 | Cc1nc2ccc(C#N)c(C#N)c2c(=O)n1CCOc1ccc(Cl)cc1-c1ccnc2c(C(=O)O)csc12 [compound 228] | < 50 | 23.5
14 | Cc1nc2c(S(C)(=O)=O)ccc(C#N)c2c(=O)n1CCOc1ccc(Cl)cc1-c1ccnc2c(C(=O)O)csc12 [compound 229] | < 50 | 22.2
15 | Cc1nc2cc(F)c(C(F)F)c(C#N)c2c(=O)n1CCOc1ccc(Cl)cc1-c1ccnc2c(C(=O)O)csc12 [compound 230] | < 50 | 14.9
16 | N#Cc1cc(C#N)c2c(=O)n(CCOc3ccc(Cl)cc3-c3cccc(C(=O)O)c3)c(CF)nc2c1 [compound 231] | < 50 | 12.9
17 | C#Cc1c(C(=O)O)cccc1-c1cc(Cl)ccc1OCCn1c(CF)nc2cc(C#N)cc(C#N)c2c1=O [compound 232] | < 50 | 16.3
18 | CS(=O)(=O)c1cc(C#N)c2c(=O)n(CCOc3ccc(Cl)cc3-c3cccc(C(=O)O)c3)c(CF)nc2c1 [compound 233] | < 50 | 28.9
19 | Cc1nc2ccc(OC(F)F)c(C#N)c2c(=O)n1CCOc1ccc(Cl)cc1-c1ccnc2c(C(=O)O)csc12 [compound 236] | < 50 | 20.3
20 | Cc1nc2c(S(=O)(=O)N(C)C)ccc(C#N)c2c(=O)n1CCOc1ccc(Cl)cc1-c1ccnc2c(C(=O)O)csc12 [compound 237] | 50 to 1000 | 54.8
21 | CNS(=O)(=O)c1ccc(C#N)c2c(=O)n(CCOc3ccc(Cl)cc3-c3ccnc4c(C(=O)O)csc34)c(C)nc12 [compound 238] | < 50 | 38

Row | SMILES | IC50 [1] [nM] | IC50 [2] [nM]
22 | Cc1nc2cc(C#N)c(Cl)c(C#N)c2c(=O)n1CCOc1ccc(Cl)cc1-c1ccnc2c(C(=O)O)csc12 [compound 239] | < 50 | 28.6
23 | Cc1nc2cc(C#N)c(F)c(C#N)c2c(=O)n1CCOc1ccc(Cl)cc1-c1ccnc2c(C(=O)O)csc12 [compound 240] | < 50 | 9.78
24 | Cc1nc2c(F)cc(F)c(C#N)c2c(=O)n1CCOc1ccc(Cl)cc1-c1ccnc2c(C(=O)O)csc12 [compound 241] | < 50 | 4.87
25 | Cc1nc2cc(Cl)c(F)c(C#N)c2c(=O)n1CCOc1ccc(Cl)cc1-c1ccnc2c(C(=O)O)csc12 [compound 242] | < 50 | 20.3
26 | Cc1nc2ccc(Cl)c(C#N)c2c(=O)n1CCOc1ccc(Cl)cc1-c1ccnc2c(C(=O)O)csc12 [compound 244] | < 50 | 31.2
27 | Cc1nc2ccc(F)c(C#N)c2c(=O)n1CCOc1ccc(Cl)cc1-c1ccnc2c(C(=O)O)csc12 [compound 245] | < 50 | 25.6
28 | Cc1nc2cc(C(F)(F)F)c(F)c(C#N)c2c(=O)n1CCOc1ccc(Cl)cc1-c1ccnc2c(C(=O)O)csc12 [compound 246] | < 50 | 43
29 | Cc1nc2cc(Cl)c(S(=O)(=O)N(C)C)c(C#N)c2c(=O)n1CCOc1ccc(Cl)cc1-c1ccnc2c(C(=O)O)csc12 [compound 247] | 50 to 1000 | 61.1
30 | Cc1nc2ccc(S(=O)(=O)N3CCC3)c(C#N)c2c(=O)n1CCOc1ccc(Cl)cc1-c1ccnc2c(C(=O)O)csc12 [compound 248] | 50 to 1000 | 52.3
31 | Cc1nc2ccc(S(=O)(=O)N3CCCC3)c(C#N)c2c(=O)n1CCOc1ccc(Cl)cc1-c1ccnc2c(C(=O)O)csc12 [compound 249] | < 50 | 19.8
32 | CCN(CC)S(=O)(=O)c1ccc2nc(C)n(CCOc3ccc(Cl)cc3-c3ccnc4c(C(=O)O)csc34)c(=O)c2c1C#N [compound 250] | < 50 | 43.7
33 | Cc1nc2ccc(S(=O)(=O)N3CCCCC3)c(C#N)c2c(=O)n1CCOc1ccc(Cl)cc1-c1ccnc2c(C(=O)O)csc12 [compound 251] | < 50 | –
34 | Cc1nc2ccc(S(=O)(=O)NCc3ccccc3)c(C#N)c2c(=O)n1CCOc1ccc(Cl)cc1-c1ccnc2c(C(=O)O)csc12 [compound 252] | < 50 | 42
35 | CCN(Cc1ccccc1)S(=O)(=O)c1ccc2nc(C)n(CCOc3ccc(Cl)cc3-c3ccnc4c(C(=O)O)csc34)c(=O)c2c1C#N [compound 253] | < 50 | 46
36 | Cc1nc2cccc(C#N)c2c(=O)n1CCOc1ccc(Cl)cc1-c1ccnc2c(C(=O)O)csc12 [compound 254] | < 50 | 20.4
37 | Cc1nc2cc(C(F)(F)F)cc(C#N)c2c(=O)n1C/C=C/c1ccc(Cl)cc1-c1ccnc2c(C(=O)O)csc12 [compound 255] | 50 to 1000 | 78.5
38 | Cc1nc2cc(Cl)c(Cl)c(C#N)c2c(=O)n1C/C=C/c1ccc(Cl)cc1-c1ccnc2c(C(=O)O)csc12 [compound 256] | 50 to 1000 | 104
39 | Cc1nc2cc(Cl)c(Cl)c(C#N)c2c(=O)n1CC#Cc1ccc(Cl)cc1-c1ccnc2c(C(=O)O)csc12 [compound 257] | 50 to 1000 | 69.2
40 | Cc1nc2cc(C#N)cc(C#N)c2c(=O)n1CC#Cc1ccc(Cl)cc1-c1ccnc2c(C(=O)O)csc12 [compound 258] | < 50 | 37.7
41 | Cc1nc2cc(C(F)(F)F)cc(C#N)c2c(=O)n1CCOc1ncc(Cl)cc1-c1ccnc2c(C(=O)O)csc12 [compound 259] | 50 to 1000 | > 1000
